{"source": "ChEMBL document CHEMBL6153147", "about": "(J Med Chem, 2025)", "key": {"[1]": {"experiment": "Oral bioavailability in C57BL/6 mouse at 10 mg/kg measured for 0.5 to […] htr by LC-MS/MS analysis", "format": "ADME, organism-based", "settings": "in vivo, time 0.5-12 hrs"}, "Cytochrome P450 2C8": {"molecular_target": "Cytochrome P450 2C8 (Homo sapiens, UniProt P10632)", "sequence (P10632 whole entry)": "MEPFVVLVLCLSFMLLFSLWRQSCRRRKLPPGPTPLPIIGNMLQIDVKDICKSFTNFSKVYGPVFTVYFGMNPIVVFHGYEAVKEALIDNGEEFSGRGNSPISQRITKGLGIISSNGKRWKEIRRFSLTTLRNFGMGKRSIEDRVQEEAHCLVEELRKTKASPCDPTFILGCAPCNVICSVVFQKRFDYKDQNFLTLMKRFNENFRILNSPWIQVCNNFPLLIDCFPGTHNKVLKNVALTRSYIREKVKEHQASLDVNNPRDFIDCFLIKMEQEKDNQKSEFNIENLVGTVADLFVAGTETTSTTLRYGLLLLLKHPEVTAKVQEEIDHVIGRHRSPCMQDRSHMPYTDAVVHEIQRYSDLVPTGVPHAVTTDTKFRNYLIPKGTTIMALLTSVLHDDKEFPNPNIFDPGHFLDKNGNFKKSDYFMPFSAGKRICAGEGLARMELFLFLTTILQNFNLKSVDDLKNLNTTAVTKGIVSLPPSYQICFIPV", "experiment": "Inhibition of CYP2C8 in human liver microsomes using paclitaxel as substrate preincubated with compound followed by substrate addition measured after 10 mins in presence of NADPH by LC-MS/MS analysis", "format": "ADME, Microsome"}, "[2]": {"experiment": "Effect on F-actin cytoskeleton in HEK293T cells at 10 uM incubated for 24 hrs by immunofluorescence based analysis", "format": "toxicity, cell-based", "settings": "human, hek-293t"}, "[3]": {"molecular_target": "Cyclin-dependent kinase 6 (Homo sapiens) (UniProt Q00534)", "experiment": "Inhibition of human CDK6 assessed as residual activity at 10 uM by kinome selectivity profiling analysis relative to control"}, "[4]": {"experiment": "Metabolic stability in mouse liver microsomes assessed as intrinsic clearance in microsome measured per mg protein preincubated for 5 mins followed by NADPH addition by LC-MS/MS analysis", "format": "ADME", "settings": "read-out: CLH"}, "[5]": {"molecular_target": "Serine/threonine-protein kinase PLK3 (Homo sapiens, UniProt Q9H4B4)", "experiment": "Inhibition of human PLK3 assessed as residual activity at 10 uM by kinome selectivity profiling analysis relative to control"}, "CCRF-CEM": {"system": "CCRF-CEM", "experiment": "cells", "settings": "Homo sapiens"}, "[6]": {"molecular_target": "cGMP-dependent protein kinase 2 (Homo sapiens) (UniProt Q13237)", "sequence (Q13237 whole entry)": "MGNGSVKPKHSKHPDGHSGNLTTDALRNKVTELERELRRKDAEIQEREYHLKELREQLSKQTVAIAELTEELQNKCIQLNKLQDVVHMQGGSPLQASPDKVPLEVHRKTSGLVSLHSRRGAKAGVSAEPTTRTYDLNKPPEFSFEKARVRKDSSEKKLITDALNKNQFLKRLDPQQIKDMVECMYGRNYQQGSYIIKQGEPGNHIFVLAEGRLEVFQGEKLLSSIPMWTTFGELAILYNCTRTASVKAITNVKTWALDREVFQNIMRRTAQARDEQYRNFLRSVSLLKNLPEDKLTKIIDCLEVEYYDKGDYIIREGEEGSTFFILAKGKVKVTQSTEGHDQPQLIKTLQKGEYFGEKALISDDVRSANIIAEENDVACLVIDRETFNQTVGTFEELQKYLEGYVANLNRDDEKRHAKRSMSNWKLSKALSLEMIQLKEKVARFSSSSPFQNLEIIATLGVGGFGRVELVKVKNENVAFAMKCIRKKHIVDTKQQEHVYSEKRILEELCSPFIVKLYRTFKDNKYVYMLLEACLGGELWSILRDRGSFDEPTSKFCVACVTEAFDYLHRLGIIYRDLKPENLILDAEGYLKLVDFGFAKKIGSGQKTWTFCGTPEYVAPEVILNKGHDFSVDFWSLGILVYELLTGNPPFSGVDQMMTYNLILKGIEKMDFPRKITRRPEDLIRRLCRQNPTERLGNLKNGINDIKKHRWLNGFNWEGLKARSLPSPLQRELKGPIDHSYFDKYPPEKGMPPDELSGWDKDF", "experiment": "Inhibition of human PRKG2 assessed as residual activity at 10 uM by kinome selectivity profiling analysis relative to control"}, "[7]": {"molecular_target": "Calcium/calmodulin-dependent protein kinase kinase 1 (Homo sapiens) (UniProt Q8N5S9)", "experiment": "Inhibition of human CaMKK1 assessed as residual activity at 10 uM by kinome selectivity profiling analysis relative to control"}, "[8]": {"molecular_target": "TRAF2 and NCK-interacting protein kinase (Homo sapiens) (UniProt Q9UKE5)", "sequence (Q9UKE5 whole entry, looked up)": "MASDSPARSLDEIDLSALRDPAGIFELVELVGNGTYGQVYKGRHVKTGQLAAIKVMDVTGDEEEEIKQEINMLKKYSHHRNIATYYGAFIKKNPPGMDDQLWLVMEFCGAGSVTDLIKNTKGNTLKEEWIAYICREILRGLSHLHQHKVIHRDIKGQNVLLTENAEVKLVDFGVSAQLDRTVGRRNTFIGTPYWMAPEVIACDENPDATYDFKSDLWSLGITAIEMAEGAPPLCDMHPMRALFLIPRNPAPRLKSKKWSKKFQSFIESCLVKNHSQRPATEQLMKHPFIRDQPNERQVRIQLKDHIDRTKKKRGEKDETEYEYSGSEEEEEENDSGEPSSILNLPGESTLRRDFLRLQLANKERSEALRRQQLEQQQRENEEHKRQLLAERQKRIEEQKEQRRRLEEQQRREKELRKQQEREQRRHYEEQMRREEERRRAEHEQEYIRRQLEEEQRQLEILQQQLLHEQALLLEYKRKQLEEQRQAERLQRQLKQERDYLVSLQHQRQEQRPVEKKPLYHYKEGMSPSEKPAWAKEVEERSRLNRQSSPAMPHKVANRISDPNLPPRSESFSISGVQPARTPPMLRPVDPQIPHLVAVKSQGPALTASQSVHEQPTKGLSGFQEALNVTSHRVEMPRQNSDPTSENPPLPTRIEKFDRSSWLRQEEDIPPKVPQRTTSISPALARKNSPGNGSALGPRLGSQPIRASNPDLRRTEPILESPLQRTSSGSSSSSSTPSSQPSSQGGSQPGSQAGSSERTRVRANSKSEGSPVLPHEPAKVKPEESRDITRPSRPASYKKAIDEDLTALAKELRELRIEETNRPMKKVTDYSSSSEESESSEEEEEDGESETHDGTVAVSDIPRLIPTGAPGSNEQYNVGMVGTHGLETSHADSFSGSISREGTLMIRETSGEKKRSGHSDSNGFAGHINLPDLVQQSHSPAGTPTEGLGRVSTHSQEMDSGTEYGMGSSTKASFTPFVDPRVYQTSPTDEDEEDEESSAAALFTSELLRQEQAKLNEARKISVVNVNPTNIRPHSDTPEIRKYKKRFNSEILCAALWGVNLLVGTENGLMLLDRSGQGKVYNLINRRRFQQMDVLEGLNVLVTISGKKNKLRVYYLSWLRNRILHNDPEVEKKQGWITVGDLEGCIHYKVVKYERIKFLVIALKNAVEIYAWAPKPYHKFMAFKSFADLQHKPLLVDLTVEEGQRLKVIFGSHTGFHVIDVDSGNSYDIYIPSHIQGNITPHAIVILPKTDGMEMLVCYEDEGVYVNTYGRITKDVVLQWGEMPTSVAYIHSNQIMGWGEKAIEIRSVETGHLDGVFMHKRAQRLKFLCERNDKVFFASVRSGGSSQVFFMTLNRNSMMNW", "experiment": "Inhibition of human TNIK assessed as residual activity at 10 uM by kinome selectivity profiling analysis relative to control"}, "K562": {"system": "K562", "experiment": "Antitumor activity against human K562 cells xenografted in BALB/c mouse assessed as suppression of tumor growth administered intragastrically for 11 days treated on every 3 to 4 days", "format": "functional, cell-based", "settings": "dose 10-20 mg/kg, route ig, time 11.0 day"}, "[9]": {"experiment": "Half life in C57BL/6 mouse at 10 mg/kg, po measured for 0.5 to 12 htr by LC-MS/MS analysis", "format": "ADME, organism-based", "settings": "in vivo, time 0.5-12 hrs"}, "[10]": {"molecular_target": "T1, Serine/threonine-protein kinase PLK1 (Homo sapiens, UniProt P53350)", "T1 sequence (P53350 whole entry)": "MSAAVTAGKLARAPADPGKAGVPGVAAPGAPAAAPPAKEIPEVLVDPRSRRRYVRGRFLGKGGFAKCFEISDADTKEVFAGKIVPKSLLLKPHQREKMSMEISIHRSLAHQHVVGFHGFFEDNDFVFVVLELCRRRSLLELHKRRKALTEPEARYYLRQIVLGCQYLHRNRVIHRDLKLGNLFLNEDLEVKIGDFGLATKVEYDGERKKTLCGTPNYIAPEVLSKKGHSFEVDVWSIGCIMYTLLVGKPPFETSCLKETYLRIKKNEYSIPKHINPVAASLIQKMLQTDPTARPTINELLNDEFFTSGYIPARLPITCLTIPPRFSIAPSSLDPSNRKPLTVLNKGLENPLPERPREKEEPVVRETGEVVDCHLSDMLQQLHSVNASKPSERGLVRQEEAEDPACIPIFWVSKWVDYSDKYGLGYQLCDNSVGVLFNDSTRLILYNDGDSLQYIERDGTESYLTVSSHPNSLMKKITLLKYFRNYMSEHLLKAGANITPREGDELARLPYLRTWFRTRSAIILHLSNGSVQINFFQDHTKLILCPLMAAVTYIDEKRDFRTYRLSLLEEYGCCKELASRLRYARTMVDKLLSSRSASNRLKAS", "experiment": "Inhibition of human PLK1 using ATF2 as substrate incubated for 40 mins in presence of [gamma-33P]ATP/Mg acetate by scintillation counting analysis"}, "[11]": {"molecular_target": "Glycogen synthase kinase-3 beta (Homo sapiens) (UniProt P49841)", "sequence (P49841 whole entry, looked up)": "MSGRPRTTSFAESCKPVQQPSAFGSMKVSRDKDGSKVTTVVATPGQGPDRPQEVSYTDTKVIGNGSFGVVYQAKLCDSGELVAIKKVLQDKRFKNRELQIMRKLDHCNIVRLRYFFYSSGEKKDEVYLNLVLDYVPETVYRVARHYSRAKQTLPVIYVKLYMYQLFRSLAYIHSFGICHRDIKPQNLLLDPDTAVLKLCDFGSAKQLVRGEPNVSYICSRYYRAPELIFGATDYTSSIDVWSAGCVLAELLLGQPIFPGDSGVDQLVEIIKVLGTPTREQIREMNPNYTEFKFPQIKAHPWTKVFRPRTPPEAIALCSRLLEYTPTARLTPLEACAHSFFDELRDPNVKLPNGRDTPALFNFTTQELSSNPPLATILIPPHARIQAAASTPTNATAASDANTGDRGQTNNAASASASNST", "experiment": "Inhibition of human GSK-3beta assessed as residual activity at 10 uM by kinome selectivity profiling analysis relative to control"}, "Cytochrome P450 1A2": {"molecular_target": "Cytochrome P450 1A2 (Homo sapiens, UniProt P05177)", "experiment": "Inhibition of CYP1A2 in human liver microsomes using phenacetin as substrate preincubated with compound followed by substrate addition measured after 10 mins in presence of NADPH by LC-MS/MS analysis", "format": "ADME, Microsome"}, "[12]": {"experiment": "Tmax in C57BL/6 mouse at 10 mg/kg, po measured for 0.5 to 12 htr by LC-MS/MS analysis", "format": "ADME, organism-based", "settings": "in vivo, time 0.5-12 hrs"}, "[13]": {"experiment": "AUC (0 to t) in C57BL/6 mouse at 10 mg/kg, po measured for 0.5 to […] htr by LC-MS/MS analysis", "format": "ADME, organism-based", "settings": "in vivo, time 0.5-12 hrs"}, "[14]": {"experiment": "Effect on mitochondrial membrane integrity in HEK293T cells at 10 uM incubated for 24 hrs by JC-1 dye based analysis", "format": "toxicity, cell-based", "settings": "human, hek-293t"}, "[15]": {"experiment": "Clearance in C57BL/6 mouse at 1 mg/kg, iv measured for 0.5 to […] htr by LC-MS/MS analysis", "format": "ADME, organism-based", "settings": "in vivo, time 0.5-12 hrs"}, "[16]": {"experiment": "Acute toxicity in mouse assessed as damage in liver at 500 mg/kg, IG qd treated for 7 days by H and E staining based analysis", "format": "organism-based", "settings": "in vivo, po, 168 h, time 7 day"}, "[17]": {"experiment": "Metabolic stability in dog liver microsomes assessed as half life preincubated for 5 mins followed by NADPH addition by LC-MS/MS analysis", "format": "ADME, Canis lupus familiaris, Microsome"}, "Homo sapiens": {"organism": "Homo sapiens", "experiment": "Inhibition of human ABL assessed as residual activity at 10 uM by kinome selectivity profiling analysis relative to control"}, "[18]": {"molecular_target": "Aurora kinase A (Homo sapiens) (UniProt O14965)", "sequence (O14965 whole entry)": "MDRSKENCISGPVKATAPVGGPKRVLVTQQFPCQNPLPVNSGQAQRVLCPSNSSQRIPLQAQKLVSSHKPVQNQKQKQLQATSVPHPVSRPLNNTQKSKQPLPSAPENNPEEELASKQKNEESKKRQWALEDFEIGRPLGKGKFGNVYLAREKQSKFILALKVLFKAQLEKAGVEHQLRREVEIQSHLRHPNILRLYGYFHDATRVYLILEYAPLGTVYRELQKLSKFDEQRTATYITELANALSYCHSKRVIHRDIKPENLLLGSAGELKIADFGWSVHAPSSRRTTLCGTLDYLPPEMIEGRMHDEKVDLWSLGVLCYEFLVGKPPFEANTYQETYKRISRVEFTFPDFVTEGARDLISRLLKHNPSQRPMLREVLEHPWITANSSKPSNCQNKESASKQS", "experiment": "Inhibition of human Aurora-A assessed as residual activity at 10 uM by kinome selectivity profiling analysis relative to control"}, "[19]": {"experiment": "Stability of compound in rat hepatocytes", "format": "ADME, cell-based, Hepatocyte"}, "[20]": {"molecular_target": "Epidermal growth factor receptor (Homo sapiens) (UniProt P00533)", "experiment": "Inhibition of human EGFR assessed as residual activity at 10 uM by kinome selectivity profiling analysis relative to control"}, "[21]": {"molecular_target": "T1, Serine/threonine-protein kinase PLK1", "experiment": "Inhibition of human PLK1 assessed as residual activity at 10 uM by kinome selectivity profiling analysis relative to control"}, "A549": {"system": "A549", "experiment": "cells", "settings": "Homo sapiens"}, "[22]": {"experiment": "AUC (0 to infinity) in C57BL/6 mouse at 10 mg/kg, po measured for 0.5 to 12 htr by LC-MS/MS analysis", "format": "ADME, organism-based", "settings": "in vivo, time 0.5-12 hrs"}, "[23]": {"experiment": "Acute toxicity in mouse assessed as damage in lung at 500 mg/kg, IG qd treated for 7 days by H and E staining based analysis", "format": "organism-based", "settings": "in vivo, po, 168 h, time 7 day"}, "[24]": {"experiment": "Cmax in C57BL/6 mouse at 10 mg/kg, po measured for 0.5 to […] htr by LC-MS/MS analysis", "format": "ADME, organism-based", "settings": "in vivo, time 0.5-12 hrs"}, "[25]": {"experiment": "Acute hematopoietic toxicity in mouse assessed as effect on platelets at 500 mg/kg, IG qd treated for 7 days", "format": "organism-based", "settings": "in vivo, po, 168 h, time 7 day"}, "[26]": {"experiment": "Acute toxicity in mouse assessed as damage in kidney at 500 mg/kg, IG qd treated for 7 days by H and E staining based analysis", "format": "organism-based", "settings": "in vivo, po, 168 h, time 7 day"}, "[27]": {"molecular_target": "Myosin-IIIb (Homo sapiens) (UniProt Q8WXR4)", "experiment": "Inhibition of human MYO3B assessed as residual activity at 10 uM by kinome selectivity profiling analysis relative to control"}, "[28]": {"experiment": "Metabolic stability in dog liver microsomes assessed as intrinsic clearance preincubated for 5 mins followed by NADPH addition by LC-MS/MS analysis", "format": "ADME, Canis lupus familiaris, Microsome", "settings": "read-out: CLH"}, "[29]": {"experiment": "Acute toxicity in mouse assessed as body weight change at 500 mg/kg, IG qd treated for 7 days", "format": "organism-based", "settings": "in vivo, po, 168 h, time 7 day"}, "Cytochrome P450 2C9": {"molecular_target": "Cytochrome P450 2C9 (Homo sapiens, UniProt P11712)", "sequence (P11712 whole entry)": "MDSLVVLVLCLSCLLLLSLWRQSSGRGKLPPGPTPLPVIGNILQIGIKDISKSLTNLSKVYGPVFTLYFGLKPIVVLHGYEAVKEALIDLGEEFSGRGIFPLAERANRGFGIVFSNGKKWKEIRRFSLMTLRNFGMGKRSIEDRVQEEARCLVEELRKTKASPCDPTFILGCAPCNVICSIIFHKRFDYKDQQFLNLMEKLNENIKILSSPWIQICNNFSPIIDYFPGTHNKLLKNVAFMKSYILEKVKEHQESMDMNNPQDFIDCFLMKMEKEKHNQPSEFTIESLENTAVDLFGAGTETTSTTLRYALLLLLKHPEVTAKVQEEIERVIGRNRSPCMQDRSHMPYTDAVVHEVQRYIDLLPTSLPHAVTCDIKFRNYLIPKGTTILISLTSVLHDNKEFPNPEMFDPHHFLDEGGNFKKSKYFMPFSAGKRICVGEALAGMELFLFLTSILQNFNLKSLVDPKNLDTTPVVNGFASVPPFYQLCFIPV", "experiment": "Inhibition of CYP2C9 in human liver microsomes using diclofenac as substrate preincubated with compound followed by substrate addition measured after 10 mins in presence of NADPH by LC-MS/MS analysis", "format": "ADME, Microsome"}, "[30]": {"experiment": "Half life in C57BL/6 mouse at 1 mg/kg, iv measured for 0.5 to 12 htr by LC-MS/MS analysis", "format": "ADME, organism-based", "settings": "in vivo, time 0.5-12 hrs"}, "[31]": {"molecular_target": "Dual specificity protein kinase CLK2 (Homo sapiens) (UniProt P49760)", "sequence (P49760 whole entry, looked up)": "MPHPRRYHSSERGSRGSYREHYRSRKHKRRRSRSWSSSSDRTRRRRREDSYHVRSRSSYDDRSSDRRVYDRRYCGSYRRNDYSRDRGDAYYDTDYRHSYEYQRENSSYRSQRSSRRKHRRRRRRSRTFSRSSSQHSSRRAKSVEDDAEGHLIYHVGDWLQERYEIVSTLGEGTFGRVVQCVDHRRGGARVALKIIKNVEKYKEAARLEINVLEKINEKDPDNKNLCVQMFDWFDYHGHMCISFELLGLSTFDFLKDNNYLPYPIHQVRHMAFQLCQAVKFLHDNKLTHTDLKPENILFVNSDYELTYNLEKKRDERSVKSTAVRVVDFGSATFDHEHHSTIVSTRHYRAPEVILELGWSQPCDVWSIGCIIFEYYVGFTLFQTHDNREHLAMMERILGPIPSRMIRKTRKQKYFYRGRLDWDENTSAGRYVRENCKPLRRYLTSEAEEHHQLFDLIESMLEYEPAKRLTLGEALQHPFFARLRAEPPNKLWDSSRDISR", "experiment": "Inhibition of human CLK2 assessed as residual activity at 10 uM by kinome selectivity profiling analysis relative to control"}}, "data": [{"molecule": "CC[C@@H]1C(=O)N(C)c2cnc(Nc3cc(N4CCN(C)CC4)cc(Cl)c3OCCCO)nc2N1C1CCCC1", "values": [{"measurement": "bioavailability", "setting": "[1]", "result": 45, "unit": "%"}, {"measurement": "IC50", "setting": "Cytochrome P450 2C8", "result": "> 10000", "unit": "nM"}, {"measurement": "Activity", "setting": "[2]", "result": "Non-toxic"}, {"measurement": "Activity", "setting": "[3]", "result": 103, "unit": "%"}, {"measurement": "microsomal CLint", "setting": "[4]", "result": 210, "unit": "µL/min/mg"}, {"measurement": "Activity", "setting": "[5]", "result": 11, "unit": "%"}, {"measurement": "IC50", "setting": "CCRF-CEM", "result": 41, "unit": "nM"}, {"measurement": "Activity", "setting": "[6]", "result": 110, "unit": "%"}, {"measurement": "Activity", "setting": "[7]", "result": 70, "unit": "%"}, {"measurement": "Activity", "setting": "[8]", "result": 77, "unit": "%"}, {"measurement": "Activity", "setting": "K562", "result": "Dose-dependent-effect; Demonstrated Comparable Or Remarkably Improved Therapeutic Efficacy Compared To Bi 2536 At 10 Mg/Kg (I.P.)"}, {"measurement": "half-life", "setting": "[9]", "result": 72, "unit": "min"}, {"measurement": "IC50", "setting": "[10]", "result": 20, "unit": "nM"}, {"measurement": "Activity", "setting": "[11]", "result": 112, "unit": "%"}, {"measurement": "IC50", "setting": "Cytochrome P450 1A2", "result": "> 10000", "unit": "nM"}, {"measurement": "Tmax", "setting": "[12]", "result": 45, "unit": "min"}, {"measurement": "AUC(0-t)", "setting": "[13]", "result": 820, "unit": "ng·h/mL"}, {"measurement": "Activity", "setting": "[14]", "result": "Non-toxic"}, {"measurement": "clearance", "setting": "[15]", "result": 91, "unit": "mL/min/kg"}, {"measurement": "Activity", "setting": "[16]", "result": "Non-toxic"}, {"measurement": "half-life", "setting": "[17]", "result": 17.3, "unit": "min"}, {"measurement": "Activity", "setting": "Homo sapiens", "result": 108, "unit": "%"}, {"measurement": "Activity", "setting": "[18]", "result": 110, "unit": "%"}, {"measurement": "Stability", "setting": "[19]", "result": "Stable"}, {"measurement": "Activity", "setting": "[20]", "result": 107, "unit": "%"}, {"measurement": "Activity", "setting": "[21]", "result": -2, "unit": "%"}, {"measurement": "IC50", "setting": "A549", "result": 32, "unit": "nM"}, {"measurement": "AUC(0-inf)", "setting": "[22]", "result": 825, "unit": "ng·h/mL"}, {"measurement": "Activity", "setting": "[23]", "result": "Non-toxic"}, {"measurement": "Cmax", "setting": "[24]", "result": 328, "unit": "ng/mL"}, {"measurement": "Activity", "setting": "[25]", "result": "Non-toxic"}, {"measurement": "Activity", "setting": "[26]", "result": "Non-toxic"}, {"measurement": "Activity", "setting": "[27]", "result": 44, "unit": "%"}, {"measurement": "CLint scaled", "setting": "[28]", "result": 474, "unit": "mL/min/kg"}, {"measurement": "Activity", "setting": "[29]", "result": "Non-toxic"}, {"measurement": "IC50", "setting": "Cytochrome P450 2C9", "result": 9600, "unit": "nM"}, {"measurement": "half-life", "setting": "[30]", "result": 35.4, "unit": "min"}, {"measurement": "Activity", "setting": "[31]", "result": 70, "unit": "%"}]}]}
